Data as given in publication PMC11589570, “Critical assessment of LC3/GABARAP ligands used for degrader development and ligandability of LC3/GABARAP binding pockets” (Nature Communications, 2024).
Several values for one entry are separate records, joined by “and”; a condition that tells them apart may be missing. Equal entries are not always repeated. Entries after “also recorded” stand apart in the source; their conditions may differ.

How the values were obtained:
LC3A = LC3A (Homo sapiens, UniProt Q9H492); test: Isothermal titration calorimetry (ITC); format: binding; settings: LC3A
RPE1 cells = test: Cell growth assay (IncuCyte confluence over 72 h); format: cell-based; settings: for RPE1 cell growth: listed as 8F20
Summary of the method: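 Phase confluence (% area covered by cells) imaged every 2 h for 72 h after compound addition; cells in DMEM/10% FBS, seeded 24 h before treatment. Controls were 0.1% DMSO, 250 nM Torin1 and 200 ng/mL Bafilomycin (final). Each point averages three wells.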

U2OS cells = test: Cell growth assay (IncuCyte confluence over 72 h); format: cell-based; design: key to U2OS cell growth: % of well area covered by cells (confluence); settings: for U2OS cell growth: listed as 8F20
Summary of the method: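 U2OS cells were grown in DMEM with 10% FBS for 24 h before treatment. Confluence was then tracked by IncuCyte phase imaging over 72 h and expressed as % of well area covered by cells. Each point is the average of three wells.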

[1] = system: RPE-1 GFP-LC3B-RPF-LC3∆G reporter cell line; test: Autophagy flux assay; format: cell-based; settings: rebuttal letter
From the text: LC3/GABARAP in vitro, but no attempts are made to replicate the previously reported cellular activity of these compounds. It would be beneficial to know whether these compounds have any effect on autophagy in the authors’ hands, and therefore could act by alternative mechanisms, or whether they […]
Response: We were very concerned that the ligands used for ATTEC development might induce general toxicity in cell lines, as they are based on drugs used in oncology (such as the kinesin inhibitor 10O5) and the isoxazole scaffold often used in the development of multi-targeted kinase inhibitors. However, we have now investigated compounds 1-4 in autophagy flux assays using the RPE-1 GFP-LC3B-RPF-LC3∆G reporter cell line (single clone) as […]
reported in [PMID:37558952].
(RR_Figure 6). The authors of the first manuscript reporting these ligands [PMID: 31666698]
However, due to the potent activity of 8F20 on KIF11, which will have profound effects on cell trafficking and growth, and DCAF11 (AN1, [PMID: 38036533]), we find it unlikely that the effects on autophagy are due to LC3/GABARAP modulation. Due to the lack of target (LC3/GABARAP) binding in vitro and the […]
of this review but have excluded the data in the manuscript.
RR_figure 5: Autophagy flux measurement for 10O5 and AN2. No induction of autophagy or effects (right panels, assessed by Incucyte (Sartorius) life cell imaging) on cell growth was […]
RR_figure 6: Autophagy flux measurement for 8F20 and AN1 show changes in autophagy flux […]
It is not clear how many biological replicates have been performed. For example, the figure legends […]

Cc1ccc(C(=O)N(CCCN)[C@@H](c2nc3cc(Cl)ccc3c(=O)n2Cc2ccccc2)C(C)C)cc1 [compound 3, (R)-N-(3-aminopropyl)-N-(1-(3-benzyl-7-chloro-4-oxo-3,4-dihydroquinazolin-2-yl)−2-methylpropyl)−4-methylbenzamide] was tested, and the “outcome of ITC titration” value (LC3A) was “did not yield significant binding heats”, the RPE1 cell growth (RPE1 cells; 500 nM, 34 h) was 24 and 12 and 17 and the RPE1 cell growth (RPE1 cells; 500 nM, 36 h) was 23 and 14 and 18. The RPE1 cell growth (RPE1 cells; 500 nM, 38 h) was 23 and 14 and 19, the RPE1 cell growth (RPE1 cells; 500 nM, 40 h) was 11 and 16 and 21 and the RPE1 cell growth (RPE1 cells; 500 nM, 42 h) was 27 and 16 and 23. For the same compound, the RPE1 cell growth (RPE1 cells; 500 nM, 44 h) was 29 and 17 and 23, the RPE1 cell growth (RPE1 cells; 500 nM, 46 h) was 31 and 17 and 24 and the RPE1 cell growth (RPE1 cells; 500 nM, 48 h) was 32 and 17 and 25. The RPE1 cell growth (RPE1 cells; 500 nM, 54 h) was 33 and 17 and 28, the RPE1 cell growth (RPE1 cells; 1 uM, 34 h) was 15 and 25 and 13 and the RPE1 cell growth (RPE1 cells; 1 uM, 36 h) was 17 and 25 and 14. The RPE1 cell growth (RPE1 cells; 1 uM, 38 h) was 17 and 24 and 15, the RPE1 cell growth (RPE1 cells; 1 uM, 40 h) was 18 and 20 and 17 and the RPE1 cell growth (RPE1 cells; 1 uM, 42 h) was 22 and 27 and 16. For the same compound, the RPE1 cell growth (RPE1 cells; 1 uM, 44 h) was 22 and 28 and 18, the RPE1 cell growth (RPE1 cells; 1 uM, 46 h) was 22 and 28 and 17 and the RPE1 cell growth (RPE1 cells; 1 uM, 48 h) was 25 and 32 and 18. The RPE1 cell growth (RPE1 cells; 1 uM, 50 h) was 24 and 32 and 20, the RPE1 cell growth (RPE1 cells; 1 uM, 54 h) was 29 and 33 and 21 and the RPE1 cell growth (RPE1 cells; 1 uM, 56 h) was 28 and 34 and 21. For the same compound, the RPE1 cell growth (RPE1 cells; 1 uM, 58 h) was 30, the RPE1 cell growth (RPE1 cells; 3 uM, 34 h) was 25 and 15 and 17 and the RPE1 cell growth (RPE1 cells; 3 uM, 36 h) was 25 and 16 and 18. For the same compound, the RPE1 cell growth (RPE1 cells; 3 uM, 38 h) was 26 and 17 and 18, the RPE1 cell growth (RPE1 cells; 3 uM, 40 h) was 23 and 18 and 19 and the RPE1 cell growth (RPE1 cells; 3 uM, 42 h) was 29 and 18 and 23. The RPE1 cell growth (RPE1 cells; 3 uM, 44 h) was 28 and 20 and 21, the RPE1 cell growth (RPE1 cells; 3 uM, 46 h) was 31 and 19 and 22 and the RPE1 cell growth (RPE1 cells; 3 uM, 48 h) was 31 and 19 and 23. For the same compound, the RPE1 cell growth (RPE1 cells; 3 uM, 50 h) was 31 and 20 and 23, the RPE1 cell growth (RPE1 cells; 3 uM, 52 h) was 25 and 22 and 24 and the RPE1 cell growth (RPE1 cells; 3 uM, 54 h) was 31 and 21 and 25. For the same compound, the RPE1 cell growth (RPE1 cells; 3 uM, 56 h) was 34 and 19 and 25, the RPE1 cell growth (RPE1 cells; 5 uM, 40 h) was 27 and 15 and 24 and the “effect on cell growth (confluence)” value (RPE1 cells; RPE1, 72 h) was “significant growth reduction; also recorded: strongly suppressed cellular growth”. The U2OS cell growth (U2OS cells; 100 nM, time 34 h) was 22.2522 and 20.3197 and 25.5047, the U2OS cell growth (U2OS cells; 100 nM, time 36 h) was 25.043 and 22.9919 and 27.5453 and the U2OS cell growth (U2OS cells; 100 nM, time 38 h) was 34.8117 and 27.203 and 36.419. The U2OS cell growth (U2OS cells; 100 nM, time 40 h) was 28.7682 and 25.0593 and 31.2523, the U2OS cell growth (U2OS cells; 100 nM, time 42 h) was 28.8457 and 26.5057 and 32.2617 and the U2OS cell growth (U2OS cells; 100 nM, time 44 h) was 31.3439 and 34.6421 and 31.7152. For the same compound, the U2OS cell growth (U2OS cells; 100 nM, time 46 h) was 34.3656 and 30.4353 and 36.3708, the U2OS cell growth (U2OS cells; 500 nM, time 34 h) was 26.6194 and 31.3484 and 27.2425 and the U2OS cell growth (U2OS cells; 500 nM, time 36 h) was 31.7612 and 33.804 and 33.4668. For the same compound, the U2OS cell growth (U2OS cells; 500 nM, time 38 h) was 33.118 and 34.4569 and 30.251, the U2OS cell growth (U2OS cells; 500 nM, time 40 h) was 39.6842 and 38.1992 and 33.6035 and the U2OS cell growth (U2OS cells; 500 nM, time 42 h) was 36.1441 and 40.2893 and 34.3307. The U2OS cell growth (U2OS cells; 500 nM, time 44 h) was 39.8612 and 39.5559 and 35.4494, the U2OS cell growth (U2OS cells; 1 uM, time 34 h) was 32.3197 and 36.2486 and 28.9643 and the U2OS cell growth (U2OS cells; 1 uM, time 36 h) was 35.3333 and 38.6378 and 32.1258. The U2OS cell growth (U2OS cells; 1 uM, time 38 h) was 37.1941 and 39.9036 and 33.4921, the U2OS cell growth (U2OS cells; 1 uM, time 40 h) was 42.2479 and 44.6121 and 35.334 and the U2OS cell growth (U2OS cells; 1 uM, time 42 h) was 42.2672 and 42.3728 and 37.7313. For the same compound, the U2OS cell growth (U2OS cells; 1 uM, time 44 h) was 41.5555 and 43.3678 and 38.4367, the U2OS cell growth (U2OS cells; 1 uM, time 46 h) was 37.0733 and the U2OS cell growth (U2OS cells; 3 uM, time 34 h) was 24.9204 and 26.3201 and 25.7719. The U2OS cell growth (U2OS cells; 3 uM, time 36 h) was 25.7351 and 27.3161 and 28.6407, the U2OS cell growth (U2OS cells; 3 uM, time 38 h) was 25.9027 and 26.3122 and 27.7775 and the U2OS cell growth (U2OS cells; 3 uM, time 40 h) was 26.2298 and 26.2214 and 29.7472. For the same compound, the U2OS cell growth (U2OS cells; 3 uM, time 42 h) was 25.5977 and 26.3382 and 29.6536, the U2OS cell growth (U2OS cells; 3 uM, time 44 h) was 26.2297 and 25.3695 and 28.5871 and the U2OS cell growth (U2OS cells; 3 uM, time 46 h) was 24.6522 and 24.6058 and 27.1829. For the same compound, the U2OS cell growth (U2OS cells; 5 uM, time 34 h) was 28.2897 and 22.3175 and 29.2635, the U2OS cell growth (U2OS cells; 5 uM, time 36 h) was 23.4225 and 23.0973 and 22.2621 and the U2OS cell growth (U2OS cells; 5 uM, time 38 h) was 33.3374 and 20.2415 and 36.6497. The U2OS cell growth (U2OS cells; 5 uM, time 40 h) was 36.8034 and 23.7173 and 40.6411, the U2OS cell growth (U2OS cells; 5 uM, time 42 h) was 29.192 and 24.8481 and 31.1144 and the U2OS cell growth (U2OS cells; 5 uM, time 44 h) was 25.7303 and 24.4958 and 26.8332. For the same compound, the U2OS cell growth (U2OS cells; 5 uM, time 46 h) was 31.8475 and 23.3649 and 37.1335, the “effect on cell growth (confluence)” value (U2OS cells; U2OS, 72 h) was “significant growth inhibition in all tested concentrations; also recorded: strongly suppressed cellular growth” and the “autophagy induction (autophagy flux)” value [1] was “significant autophagy activation”. The “effects on cell growth (Incucyte life cell imaging)” value [1] was “profound effects on cell growth”.
